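Test compounds were applied to cells in 96-well plates for 48 hours at 5 doses. GI50 is the concentration that inhibits growth by half.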 Calls of active or inactive are those of the source. No stated cut-off is given here; in the data, active = GI50 up to about 1.1 µM and inactive = higher.
What was measured:
Assay in all cases: NCI tumour cell line growth inhibition, 48 h
ACHN = tested on: ACHN
HL-60 = tested on: HL-60
TK-10 = tested on: TK-10
HCC 2998 = tested on: HCC 2998
NCI-H23 = tested on: NCI-H23
RPMI-8226 = tested on: RPMI-8226
U-251 = tested on: U-251
SW-620 = tested on: SW-620
HT-29 = tested on: HT-29
SNB-19 = tested on: SNB-19
NCI-H460 = tested on: NCI-H460
SK-MEL-5 = tested on: SK-MEL-5
SF-539 = tested on: SF-539
LOX IMVI = tested on: LOX IMVI
HOP-62 = tested on: HOP-62
COLO 205 = tested on: COLO 205
SF-295 = tested on: SF-295
UACC-257 = tested on: UACC-257
OVCAR-5 = tested on: OVCAR-5

| Structure (SMILES) | GI50 (ACHN) | GI50 (HL-60) | GI50 (TK-10) | GI50 (HCC 2998) | GI50 (NCI-H23) | GI50 (RPMI-8226) | GI50 (U-251) | GI50 (SW-620) | GI50 (HT-29) | GI50 (SNB-19) | GI50 (NCI-H460) | GI50 (SK-MEL-5) | GI50 (SF-539) | GI50 (LOX IMVI) | GI50 (HOP-62) | GI50 (COLO 205) | GI50 (SF-295) | GI50 (UACC-257) | GI50 (OVCAR-5) |
| --- | --- | --- | --- | --- | --- | --- | --- | --- | --- | --- | --- | --- | --- | --- | --- | --- | --- | --- | --- |
| COc1ccc(-c2cc(O)c3cc4c(cc3n2)OCO4)c(OC)c1 | 37.1 µM (inactive) | 20 µM (inactive) | > 100 µM (inactive) | 50.7 µM (inactive) | 70.3 µM (inactive) | 28.3 µM (inactive) | 59.4 µM (inactive) | 47.3 µM (inactive) | 43 µM (inactive) | 67.6 µM (inactive) | 40.2 µM (inactive) | 26.5 µM (inactive) | 51.3 µM (inactive) | 47.9 µM (inactive) | 73.1 µM (inactive) | 46.2 µM (inactive) |  |  |  |
| CC1(O)CC2C(CC1SCCO)C2(C)C (centres undefined) | > 100 µM (inactive) | > 100 µM (inactive) | > 100 µM (inactive) | > 100 µM (inactive) | > 100 µM (inactive) | > 100 µM (inactive) | > 100 µM (inactive) |  | > 100 µM (inactive) |  | > 100 µM (inactive) | > 100 µM (inactive) | > 100 µM (inactive) |  |  | > 100 µM (inactive) | > 100 µM (inactive) | > 100 µM (inactive) | > 100 µM (inactive) |
| O=C1CCCCC/C=C2/CC[C@H](Sc3ccccc3)[C@@H]12 | 42.5 µM (inactive) | 52.1 µM (inactive) | 49.9 µM (inactive) |  | 83 µM (inactive) | > 100 µM (inactive) | 80.7 µM (inactive) | > 100 µM (inactive) | > 100 µM (inactive) | 73.8 µM (inactive) | 94.4 µM (inactive) | > 100 µM (inactive) |  | 43 µM (inactive) | 37.3 µM (inactive) | > 100 µM (inactive) | 40.6 µM (inactive) | > 100 µM (inactive) |  |
| N/N=C1/C(=O)N(c2ccc(Cl)cc2)C(=O)C(=O)C1c1nc2ccccc2s1 (centres undefined) | > 100 µM (inactive) | > 100 µM (inactive) | > 100 µM (inactive) | > 100 µM (inactive) | > 100 µM (inactive) | > 100 µM (inactive) | > 100 µM (inactive) | > 100 µM (inactive) | > 100 µM (inactive) | > 100 µM (inactive) | > 100 µM (inactive) | > 100 µM (inactive) | > 100 µM (inactive) | > 100 µM (inactive) | > 100 µM (inactive) | > 100 µM (inactive) | > 100 µM (inactive) | > 100 µM (inactive) | > 100 µM (inactive) |
| CN/N=C(/CC(=O)c1sc(-n2nc(-c3ccccc3)cc2-c2ccccc2)nc1C)C(=O)Nc1ccc(Cl)c(Cl)c1 | 25.1 µM (inactive) |  |  | 44.3 µM (inactive) | 23.7 µM (inactive) | 40.1 µM (inactive) | 24.6 µM (inactive) | 57.5 µM (inactive) | 25.9 µM (inactive) | > 100 µM (inactive) | 57.3 µM (inactive) | 18 µM (inactive) | 40.2 µM (inactive) | 22.5 µM (inactive) | 19.4 µM (inactive) | 28.9 µM (inactive) | 25.3 µM (inactive) | 30.6 µM (inactive) | 16.1 µM (inactive) |
| COC(=O)C1=C(C)N(NC(N)=O)C(C)(O)C12CCOC2=O (centres undefined) | > 100 µM (inactive) | > 100 µM (inactive) | > 100 µM (inactive) | < 0.01 µM (active) | > 100 µM (inactive) | > 100 µM (inactive) | > 100 µM (inactive) | > 100 µM (inactive) | > 100 µM (inactive) | > 100 µM (inactive) | > 100 µM (inactive) |  | > 100 µM (inactive) | > 100 µM (inactive) | > 100 µM (inactive) | > 100 µM (inactive) | > 100 µM (inactive) | > 100 µM (inactive) | > 100 µM (inactive) |
| COC(=O)CCc1cccnc1/C=N/O | > 100 µM (inactive) | > 100 µM (inactive) | 55.7 µM (inactive) |  | > 100 µM (inactive) |  | > 100 µM (inactive) | 87.5 µM (inactive) | > 100 µM (inactive) | > 100 µM (inactive) | 27.4 µM (inactive) | > 100 µM (inactive) | > 100 µM (inactive) | > 100 µM (inactive) | > 100 µM (inactive) | > 100 µM (inactive) | > 100 µM (inactive) | > 100 µM (inactive) | > 100 µM (inactive) |
| O=C(CN1CCCCC1)N1CCc2c([nH]c3ccccc23)C1c1cccnc1 (centres undefined) | > 100 µM (inactive) | > 100 µM (inactive) | > 100 µM (inactive) | > 100 µM (inactive) | > 100 µM (inactive) | > 100 µM (inactive) | > 100 µM (inactive) | > 100 µM (inactive) | > 100 µM (inactive) | > 100 µM (inactive) | > 100 µM (inactive) | > 100 µM (inactive) | > 100 µM (inactive) | > 100 µM (inactive) | > 100 µM (inactive) |  | > 100 µM (inactive) | > 100 µM (inactive) | > 100 µM (inactive) |
| Cn1nc(-c2ccccc2)c(C(=O)/C=C/c2ccc(Cl)cc2)c(N2CCCCC2)c1=O | 1.92 µM (inactive) | 1.82 µM (inactive) | 3.72 µM (inactive) |  | 2.19 µM (inactive) | 2.05 µM (inactive) | 1.86 µM (inactive) | 3.48 µM (inactive) | 1.45 µM (inactive) | 2.14 µM (inactive) | 2.52 µM (inactive) | 1.95 µM (inactive) | 1.61 µM (inactive) | 2.41 µM (inactive) | 2.37 µM (inactive) | 2.23 µM (inactive) | 0.719 µM (active) |  |  |
| CC(=O)NC1C(OCc2ccccc2)OC(COC(=O)CCCCCCCCCCNC(=O)CCNc2ccc([N+](=O)[O-])c3[nH]c4ccc(O)cc4c(=O)c23)C(O)C1OC(C)C(=O)N[C@H](C(=O)N[C@H](CCC(=O)O)C(N)=O)C(C)C (some centres undefined) | 60.7 µM (inactive) | 63.4 µM (inactive) | > 100 µM (inactive) | 23.8 µM (inactive) | > 100 µM (inactive) | 19.2 µM (inactive) | 44.4 µM (inactive) |  | 56.2 µM (inactive) | 46.9 µM (inactive) | > 100 µM (inactive) | > 100 µM (inactive) | 40.1 µM (inactive) | 28.8 µM (inactive) | > 100 µM (inactive) | 32.4 µM (inactive) | > 100 µM (inactive) | > 100 µM (inactive) | 54.3 µM (inactive) |
| CC(C)=CC1CCc2ccccc2N1S(=O)(=O)c1ccc(C)cc1 (centres undefined) | 3.31 µM (inactive) | 0.272 µM (active) | 2.81 µM (inactive) | 1.27 µM (inactive) | 1.4 µM (inactive) | 1.32 µM (inactive) | 1.19 µM (inactive) | 0.726 µM (active) | 1.36 µM (inactive) | 3.46 µM (inactive) | 1.36 µM (inactive) | 0.589 µM (active) | 1.16 µM (inactive) | 1.68 µM (inactive) | 2.57 µM (inactive) | 1.06 µM (active) | 1.5 µM (inactive) | 2.27 µM (inactive) | 14.8 µM (inactive) |
| Cc1c(C(=O)/C=C/c2ccccc2Cl)[n+]([O-])c2ccccc2[n+]1[O-] | 17.2 µM (inactive) | 12.3 µM (inactive) |  |  | 14.5 µM (inactive) | 11.9 µM (inactive) | 14.3 µM (inactive) | 10.3 µM (inactive) | 17.3 µM (inactive) | 17.3 µM (inactive) | 10.3 µM (inactive) | 18 µM (inactive) | 15.9 µM (inactive) |  | 19.9 µM (inactive) | 15.5 µM (inactive) | 14.7 µM (inactive) | 13.4 µM (inactive) | 20.9 µM (inactive) |
| CC12CCC(C)(c3cc(O)c(O)cc31)c1cc(O)c(O)cc12 | 16.1 µM (inactive) | 3.38 µM (inactive) | 19.8 µM (inactive) | 17.5 µM (inactive) | 27 µM (inactive) | 8.51 µM (inactive) |  | 15.7 µM (inactive) | 14.7 µM (inactive) | 15.5 µM (inactive) | 18 µM (inactive) | 17.7 µM (inactive) |  | 16.4 µM (inactive) | 26.7 µM (inactive) | 16.5 µM (inactive) | 22 µM (inactive) | 15.3 µM (inactive) | 22.3 µM (inactive) |
| C=C1C(=O)OC2C1CC[C@H](C)C1(O)C(O)CC(=O)[C@@]21C (some centres undefined) | 19.5 µM (inactive) | 17 µM (inactive) | > 10 µM (inactive) | 24 µM (inactive) | 18.7 µM (inactive) | 22.1 µM (inactive) | 49.8 µM (inactive) | 20.6 µM (inactive) | 20.4 µM (inactive) | 52 µM (inactive) | 36.5 µM (inactive) | 16.7 µM (inactive) | 19 µM (inactive) |  |  | 16.3 µM (inactive) | 24.8 µM (inactive) | 14.4 µM (inactive) | 21 µM (inactive) |
| [N-]=[N+]=NC(CI)c1cn([C@H]2C[C@H](O)[C@@H](CO)O2)c(=O)[nH]c1=O (some centres undefined) | > 100 µM (inactive) | 54.1 µM (inactive) | > 100 µM (inactive) | 85.1 µM (inactive) | 90.4 µM (inactive) | 51.5 µM (inactive) | > 100 µM (inactive) | > 100 µM (inactive) | > 100 µM (inactive) | > 100 µM (inactive) | 29.8 µM (inactive) | > 100 µM (inactive) | > 100 µM (inactive) | > 100 µM (inactive) | > 100 µM (inactive) | > 100 µM (inactive) | > 100 µM (inactive) |  | > 100 µM (inactive) |
| COc1cc2c(c(OC)c1OC)-c1ccc(SC)c(=O)cc1[C@@H](NC(=O)c1ccc(F)cc1)CC2 | 0.0467 µM (active) | < 0.01 µM (active) | 0.0515 µM (active) | 0.0284 µM (active) | 0.0417 µM (active) | 0.0498 µM (active) | 0.0428 µM (active) | 0.0306 µM (active) | 0.0318 µM (active) |  | 0.0344 µM (active) |  | 0.0283 µM (active) | 0.0501 µM (active) | 0.0621 µM (active) | 0.0206 µM (active) | 0.0327 µM (active) | < 0.01 µM (active) | 48.1 µM (inactive) |

Source: ChEMBL document CHEMBL1201862, “PubChem BioAssay data set” (2004)
